System: human peripheral blood mononuclear cells (PBMCs)
Experiment: IFN-α secretion by human PBMC (ELISA)
Type: cell-based
Details: for EC50: human PBMCs from healthy donors, IFN-α in supernatant by ELISA; for EC50 / IFN-α Max: 24 hours incubation; for IFN-α Max / maximum IFN-α levels induced, as compared to C69-10 and C69-11: human PBMCs; for IFN-α Max: ELISA, limit of maximal/minimal detection 13160/102 pg/ml; for maximum IFN-α levels induced, as compared to C69-10 and C69-11: 24 hours, result in words
Method: The activity of a candidate TLR9 agonist may be assessed in vitro by measuring interferon-alpha secretion by human peripheral blood mononuclear cells (PBMC) with an enzyme linked immunosorbent assay (ELISA). In particular, human PBMC are contacted with a series of graded doses of the candidate TLR9 agonist (and controls) for a period of about 24 hours. The EC50 value (in nM) and a max production level (in pg/mL) are then determined from a dose-response curve.
Activity of oligonucleotides (PN) was assessed in vitro by measurement of cytokine secretion by human peripheral blood mononuclear cells (PBMCs).
PBMCs were isolated from blood of healthy human donors using Ficoll-Paque. For IFN-α induction, duplicate cultures of PBMCs were incubated for 24 hours with increasing concentrations of oligonucleotides. IFN-α levels in cell culture supernatants were measured by ELISA (PBL Biomedical Laboratories, Piscataway, N.J.). The limit of maximal/minimal detection was 13160/102 pg/ml.

| Substance | EC50 | IFN-α Max | maximum IFN-α levels induced, as compared to C69-10 and C69-11 |
| --- | --- | --- | --- |
| C69-10: 5′-TTCG AACGTTCGAACGTTCGAAT-3′ (SEQ ID NO: 23), phosphorothioate backbone (DNA TTCGAACGTTCGAACGTTCGAAT; DNA, all phosphorothioate, methylation of C not given here) | 58 nM | 3820 pg/mL |  |
| C69-01: 5′-TCG AACGTTCGAACGTTCGAA CGTTCGAAT-3′ (SEQ ID NO: 4), CpG-C 2′-deoxyribopolynucleotide, phosphorothioate backbone (DNA TCGAACGTTCGAACGTTCGAACGTTCGAAT; DNA, all phosphorothioate, methylation of C not given here) | 61 nM | 6030 pg/mL | Higher maximum IFN-α levels |
| C69-02: 5′-TCG AACGTTCGAACGTTCGAA CGTT-3′ (SEQ ID NO: 5), phosphorothioate backbone (DNA TCGAACGTTCGAACGTTCGAACGTT; DNA, all phosphorothioate, methylation of C not given here) | 49 nM | 6008 pg/mL | Higher maximum IFN-α levels |
| C69-11: 5′-TTTTCG AACGTTCGAACGTTCGAAATT-3′ (SEQ ID NO: 24), phosphorothioate backbone (DNA TTTTCGAACGTTCGAACGTTCGAAATT; DNA, all phosphorothioate, methylation of C not given here) | 65 nM | 1239 pg/mL |  |
